Patent US6479487B1, “6, 9-disubstituted 2-[trans-(4-aminocyclohexyl)amino] purines” (Aventis Pharmaceuticals Inc., priority 1998, dated 2002)
Several values for one entry are separate records, joined by “and”; a condition that tells them apart may be missing. Identical values can stand only once. Counter-ions that a name gives are not always drawn. Like-named read-outs stand apart in the source and are kept apart here.

Legend:
A549 = experiment: In vitro tumor cell proliferation, A549; format: cell-based, human; settings: many values given with an undefined *, read-out: In vitro Tumor Cell Proliferation (IC50, μM) Lung A549
How it was run: (§1)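 SRB read-out: cells seeded overnight, 37° C; drug 3 d, medium plus fresh drug replaced, +4 d; TCA fix 60 min 4° C, 0.4% SRB stain 30 min. Alt. CyQUANT: drug 3 d, plates frozen −80° C before read.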

DMS-114 = experiment: In vitro tumor cell proliferation, DMS-114; format: cell-based, human; settings: many values given with an undefined *, read-out: In vitro Tumor Cell Proliferation (IC50, μM) Lung DMS-114
How it was run: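 Human small cell lung carcinoma DMS-114 cells plated overnight, then drug-treated for 3 days, medium and drug renewed, and incubated 4 more days. Growth read by sulforhodamine B staining after TCA fixation; alternatively by CyQUANT after 3 days' drug exposure and freezing at −80 °C.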

MDA-MB-435 = experiment: In vitro tumor cell proliferation, MDA-MB-435; format: cell-based; settings: values given with an undefined *, read-out: In vitro Tumor Cell Proliferation (IC50, μM) Breast MDA-MB-435
How it was run: as §1

Colo-205 = experiment: In vitro tumor cell proliferation, Colo-205; format: cell-based; settings: values given with an undefined *, read-out: In vitro Tumor Cell Proliferation (IC50, μM) Colon Colo-205
How it was run: as §1

DU145 = experiment: In vitro tumor cell proliferation, DU145; format: cell-based, human; settings: many values given with an undefined *, read-out: In vitro Tumor Cell Proliferation (IC50, μM) Prostate DU145
How it was run: as §1

cdk4/cyclin D1 = target: T1, cdk4/cyclin D1 (Homo sapiens, UniProt P11802); experiment: Cyclin-dependent Kinase 4 Assay (cdk4/cyclin D1, GST-Rb substrate); format: biochemical; settings: cdk4/cyclin D1 insect cell lysate, 10 μM ATP, 30 min at 37° C., several values = separate determinations, read-out: CDK4 Inhibition IC50
T1 construct: made in house; host or cells: Sf9 insect cells (Bac-to-Bac baculovirus, pFastBac)
How it was run: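 Insect-cell lysate of coexpressed cdk4/cyclin D1 (0.1 μg) acts on GST-Rb (0.5 μg) bound to glutathione-Sepharose, in 50 mM HEPES pH 7.5, 10 mM MgCl2, 1 mM EGTA. Reaction runs 30 min at 37 °C, then is stopped by filtration and TNEN washes. Rb phosphorylation read by scintillation counting; IC50 derived.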

HT-29 = experiment: In vitro tumor cell proliferation, HT-29; format: cell-based, human; settings: many values given with an undefined *, read-out: In vitro Tumor Cell Proliferation (IC50, μM) Colon HT-29
How it was run: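 HT-29 cells seeded overnight at 37° C, then exposed to drug for 3 days, refed with fresh drug-containing medium for 4 more days. Proliferation read by sulforhodamine B staining after TCA fixation; alternatively by CyQUANT after freezing plates at −80° C following 3 days' drug exposure.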

cdk2/cyclin E = target: T2, cdk2/cyclin E (Homo sapiens, UniProt P24941); experiment: Cyclin-Dependent Kinase 2 Assay (cdk2/cyclin E, GST-Rb substrate); format: biochemical; settings: recombinant cdk2/cyclin E, 10 μM ATP, 30 min at 30° C., several values in a cell = separate determinations, read-out: CDK-2 Inhibition IC50
T2 construct: made in house; host or cells: insect cells (baculovirus co-infection)
Experimental: Substrate: GST-Rb as described above for cdk4/cyclin D1
Assay conditions for cdk2/cyclin E were identical to those for cdk4/cyclin D1 including the substrate. The concentration of recombinant cdk2/cyclin E in the assay was 0.1 μg per 100 μl assay. Incubation was for 30 min at 30° C.

PC-3 = experiment: In vitro tumor cell proliferation, PC-3; format: cell-based, human; settings: many values given with an undefined *, read-out: In vitro Tumor Cell Proliferation (IC50, μM) Prostate PC-3
How it was run: as §1

MDA-MB-231 = experiment: In vitro tumor cell proliferation, MDA-MB-231; format: cell-based, human; settings: sulforhodamine B or CyQUANT assay, many values given with an undefined *, read-out: In vitro Tumor Cell Proliferation (IC50, μM) Breast MDA-MB-231
How it was run: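 Cells plated overnight at 37 °C, then exposed to drug for 3 days, refed with fresh drug and incubated 4 more days. Read-out by sulforhodamine B staining after TCA fixation; alternatively, CyQUANT after 3-day drug exposure and freezing at −80 °C.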

[1] = Homo sapiens, MDA-MB-435, MDA-MB-435
[2] = Homo sapiens, COLO 205, Colo-205
[3] = Homo sapiens, MDA-MB-231, MDA-MB-231

T1 sequence (P11802 whole entry): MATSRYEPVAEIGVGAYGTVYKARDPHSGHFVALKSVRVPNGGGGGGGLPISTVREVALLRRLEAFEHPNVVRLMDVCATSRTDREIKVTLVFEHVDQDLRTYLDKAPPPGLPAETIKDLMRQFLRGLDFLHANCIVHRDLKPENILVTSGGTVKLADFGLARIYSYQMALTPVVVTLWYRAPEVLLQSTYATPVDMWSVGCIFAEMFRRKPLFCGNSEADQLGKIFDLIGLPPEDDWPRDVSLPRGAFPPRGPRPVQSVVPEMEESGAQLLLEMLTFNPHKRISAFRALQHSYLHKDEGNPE
T1 sequence (P24385 whole entry partner): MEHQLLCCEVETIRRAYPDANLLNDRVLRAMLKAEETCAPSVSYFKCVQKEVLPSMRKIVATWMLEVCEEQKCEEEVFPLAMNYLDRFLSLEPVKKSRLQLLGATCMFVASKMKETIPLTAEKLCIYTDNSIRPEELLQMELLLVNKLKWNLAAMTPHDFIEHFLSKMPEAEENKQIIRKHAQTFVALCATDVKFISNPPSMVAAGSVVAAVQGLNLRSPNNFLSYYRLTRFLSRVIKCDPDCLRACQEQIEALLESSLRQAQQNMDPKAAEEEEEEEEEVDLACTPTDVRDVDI

IC50 (A549; Homo sapiens, A549, A549)	IC50 (DMS-114; Homo sapiens, DMS-114, DMS-114)	IC50 (MDA-MB-435; [1])	IC50 (Colo-205; [2])	IC50 (DU145; Homo sapiens, DU-145, DU145)	IC50 (cdk4/cyclin D1)	IC50 (HT-29; Homo sapiens, HT-29, HT-29)	IC50 (cdk2/cyclin E)	IC50 (PC-3; Homo sapiens, PC-3, PC-3)	IC50 (MDA-MB-231; [3])	IC50 (MDA-MB-435; MDA-MB-435, trihydrochloride)	IC50 (DU145; DU145, trihydrochloride)	IC50 (HT-29; HT-29, trihydrochloride)	IC50 (PC-3; PC-3, trihydrochloride)	Compound	other results
0.6 µM	1.1 µM	1.9 µM	1.2 µM	0.7 µM	230 nM and 970 nM	1.6 µM	82 nM and 80 nM	1.3 µM	1.3 µM					N[C@H]1CC[C@H](Nc2nc(Nc3cccc(F)c3)c3ncn(C4CCCC4)c3n2)CC1 [Example 21, 2-[Trans-(4-aminocyclohexyl)amino]-6-(3-fluorophenylamino)-9-cyclopentylpurine dihydrochloride]	IC50 (A549; A549, dihydrochloride): 1 µM; IC50 (DMS-114; DMS-114, dihydrochloride): 0.7 µM; IC50 (MDA-MB-435; MDA-MB-435, dihydrochloride): 2.3 µM; IC50 (Colo-205; Colo-205, dihydrochloride): 1.1 µM; IC50 (DU145; DU145, dihydrochloride): 0.9 µM; IC50 (HT-29; HT-29, dihydrochloride): 1.7 µM; IC50 (PC-3; PC-3, dihydrochloride): 0.7 µM
0.39 µM	0.82 µM	0.87 µM	0.53 µM	0.54 µM	3000 nM and 3200 nM	0.79 µM	280 nM and 190 nM	0.48 µM	0.64 µM	1 µM	0.62 µM	0.7 µM	0.86 µM	N[C@H]1CC[C@H](Nc2nc(NC3CCN(Cc4cccc(Oc5ccccc5)c4)CC3)c3ncn(C4CCCC4)c3n2)CC1 [Example 147-ad, 2-[Trans-(4-aminocyclohexyl)amino]-6-[4-[1-(3-phenoxybenzyl)]piperidinylamino]-9-cyclopentylpurine trihydrochloride]	IC50 (A549; A549, trihydrochloride): 0.43 µM; IC50 (DMS-114; DMS-114, trihydrochloride): 0.62 µM; IC50 (Colo-205; Colo-205, trihydrochloride): 0.58 µM
0.21 µM	0.45 µM	0.57 µM	0.32 µM	0.35 µM	4000 nM and 2100 nM	0.37 µM	130 nM and 180 nM	0.44 µM	0.35 µM	0.51 µM	0.39 µM	0.39 µM	0.46 µM	N[C@H]1CC[C@H](Nc2nc(NC3CCN(Cc4cc(Cl)cc(Cl)c4)CC3)c3ncn(C4CCCC4)c3n2)CC1 [Example 147-w, 2-[Trans-(4-aminocyclohexyl)amino]-6-[4-[1-(3,5-dichlorobenzyl)]piperidinylamino]-9-cyclopentylpurine trihydrochloride]	IC50 (MDA-MB-231; MDA-MB-231, trihydrochloride): 0.4 µM
1.2 µM	1 µM	> 10 µM	0.76 µM	3.5 µM	3900 nM and 2000 nM	0.87 µM	165 nM	0.41 µM	0.7 µM					COc1ccc2[nH]cc(CCNc3nc(N[C@H]4CC[C@H](N)CC4)nc4c3ncn4C3CCCC3)c2c1 [Example 9, 2-[Trans-(4-aminocyclohexyl)amino]-6-[(3-(5-methoxyindolyl))-2-ethylamino]-9-cyclopentylpurine dihydrochloride]	IC50 (A549; A549, dihydrochloride): 2 µM; IC50 (DMS-114; DMS-114, dihydrochloride): 1.4 µM; IC50 (Colo-205; Colo-205, dihydrochloride): 0.94 µM; IC50 (DU145; DU145, dihydrochloride): 4 µM; IC50 (HT-29; HT-29, dihydrochloride): 0.96 µM; IC50 (PC-3; PC-3, dihydrochloride): 0.28 µM; IC50 (MDA-MB-231; MDA-MB-231, dihydrochloride): 1.1 µM
0.47 µM	1.4 µM	0.97 µM	0.61 µM	0.71 µM	3300 nM and 1200 nM	1 µM	170 nM and 370 nM and 530 nM and 400 nM	0.78 µM	0.79 µM	1.1 µM	0.66 µM	0.93 µM	0.82 µM	N[C@H]1CC[C@H](Nc2nc(NCC3CCN(Cc4ccccc4)CC3)c3ncn(C4CCCC4)c3n2)CC1 [Example 147-ac, 2-[Trans-(4-aminocyclohexyl)amino]-6-[4-(1-benzyl)piperidinylmethylamino]-9-cyclopentylpurine trihydrochloride]	IC50 (A549; A549, trihydrochloride): 0.62 µM; IC50 (DMS-114; DMS-114, trihydrochloride): 1 µM; IC50 (Colo-205; Colo-205, trihydrochloride): 0.66 µM; IC50 (MDA-MB-231; MDA-MB-231, trihydrochloride): 0.75 µM
0.57 µM		2.1 µM	1.5 µM	1.4 µM	740 nM and 1400 nM and 1100 nM	1.6 µM	190 nM	1.7 µM	1 µM					N[C@H]1CC[C@H](Nc2nc(NC3CCN(CC4CC4)CC3)c3ncn(C4CCCC4)c3n2)CC1 [Example 52, 2-[Trans-(4-aminocyclohexyl)amino]-6-[4-(1-cyclopropylmethyl)piperidinylamino]-9-cyclopentylpurine]	IC50 (A549; A549): 0.68 µM; IC50 (MDA-MB-435; MDA-MB-435): 2.4 µM; IC50 (Colo-205; Colo-205): 1.1 µM; IC50 (DU145; DU145): 1.5 µM; IC50 (HT-29; HT-29): 2 µM; IC50 (PC-3; PC-3): 2.1 µM; IC50 (MDA-MB-231; MDA-MB-231): 1.2 µM

Compound	IC50 (A549; Homo sapiens, A549, A549)	IC50 (DMS-114; Homo sapiens, DMS-114, DMS-114)	IC50 (MDA-MB-435; [1])	IC50 (Colo-205; [2])	IC50 (DU145; Homo sapiens, DU-145, DU145)	IC50 (cdk4/cyclin D1)	IC50 (HT-29; Homo sapiens, HT-29, HT-29)	IC50 (cdk2/cyclin E)	IC50 (PC-3; Homo sapiens, PC-3, PC-3)	IC50 (MDA-MB-231; [3])	IC50 (MDA-MB-435; MDA-MB-435, trihydrochloride)	IC50 (DU145; DU145, trihydrochloride)	IC50 (HT-29; HT-29, trihydrochloride)	IC50 (PC-3; PC-3, trihydrochloride)	other results
2-[Trans-(4-aminocyclohexyl)amino]-6-[4-(1-(4-methylbenzyl))piperidinylamino]-9-cyclopentylpurine [Example 40]						1000 nM and 2000 nM		230 nM and 170 nM							IC50 (A549; A549): 0.18 µM; IC50 (DMS-114; DMS-114): 0.26 µM; IC50 (MDA-MB-435; MDA-MB-435): 0.27 µM; IC50 (Colo-205; Colo-205): 0.16 µM and 0.18 µM; IC50 (DU145; DU145): 0.24 µM; IC50 (HT-29; HT-29): 0.29 µM and 0.27 µM; IC50 (PC-3; PC-3): 0.34 µM; IC50 (MDA-MB-231; MDA-MB-231): 0.19 µM and 0.28 µM
